“Also recorded” adds a separate entry of the source.

The text below walks through data of US6630583B1, “Antibiotics and methods of using the same” (priority 1998, dated 2003).

Assay [1] has as its system clinical isolate A144. Kind of assay: Cell viability (CFU/ml) one hour after addition. The class given is cell-based, pneumococcus. To be noted: 10×MIC of penicillin, 1×MIC of vancomycin or 0.4 mM peptide. The source says: (§1) Tolerance to penicillin occurs in bacteria that fail to trigger autolysins in response to the drug. […] This is a mechanism of resistance to these drugs and is a serious emerging medical problem. […] However, one pneumococcal strain that fails to lyse and dies slowly in response to both penicillin and vancomycin is the clinical isolate A144. This combination of traits makes A144 recalcitrant to therapy. FIG. 8 compares the activity of penicillin, vancomycin, and the peptide having the amino acid sequence of SEQ ID NO:2 against a classical sensitive strain, R6, and the tolerant strain A144. […] In contrast, strain A144 loses only 0.5 logs of viability in the same time period for all three therapies. […] Thereafter the bacteria grew more slowly than untreated controls.

Assay [2] concerns HK mutant Van S. Kind of assay: Lysis of HK mutant. The class given is cell-based, pneumococcus. The settings on record: 10×MIC of penicillin and/or 0.5 mM peptide. The method, then:
(§2) FIGS. 11A-11B show the effects of 10×MIC of penicillin and/or 0.5 mM of the peptide having the amino acid sequence of SEQ ID NO:2 on the lysis of clinical isolate F79 cells (FIG. 11A) and HK mutant VanS cells (FIG. 11B).
(§3) F79 is a natural isolate of pneumococcus with mutations in the HK and the ABC transporter genes as determined by SSCP (see Example 11).

Assay [3] concerns clinical isolate F79. Kind of assay: Lysis of tolerant clinical isolate. It counts as cell-based, pneumococcus. To be noted: 10×MIC of penicillin and/or 0.5 mM peptide. Here is the method:
as §2, §3

In assay [4] the test system is loss of function mutants of the ABC transporter and RR/HK. As to the kind of experiment: Tolerance of loss of function mutants. The class given is cell-based, S. pneumoniae. To be noted: growth inhibitory concentrations. The source says: As described in Example 6, using insertion duplication mutagenesis, loss of function mutations were obtained in each of the 3 open reading frames of the ABC transporter and each of the two parts of the RR/HK. […] These parallel phenotypes further implicate these topographically close genes in a common pathway.
Vancomycin is the only antibiotic that maintains efficacy against many strains of highly antibiotic resistant bacteria, such as staphylococci, enterococci and pneumococci. Escape from antibiotic activity of vancomycin has been detected in rare staphylococci and enterococci but not in pneumococci as yet. […] Infect. Dis. J., 12:196-200 (1993); Marton et al., J. Infect. Dis., 163:542-8 (1991); and Bradley et al., Pediatr. Infect. Dis., 14:1037-1041 (1995)]. […] If they created a phenotype which was corrected by exogenous peptide, they may participate in the biological activity of the peptide. For instance, the ABC transporter may transport the peptide and the HK may serve as an extracellular receptor for the peptide which then changes the behavior of the bacteria (i.e., killing) via a RR signal.

Assay [5] has as its system mutant SPSJ01. As to the kind of experiment: Screen of library of loss of function mutants for antibiotic tolerance. The class given is cell-based, pneumococcus. The source says:
To detect genes that are part of the trigger pathway of the pneumococcal autolysin a library of loss of function mutants has been created, which was screened for antibiotic tolerance [Pearce et al., Mol. Microbiol., 9:1037-1050 (1993)]. […] It is reasonable to assume that this two component system represents the start of the pneumococcal autolytic trigger pathway, functioning as a relay station reacting to cell density signals or the binding of antibiotics to penicillin binding proteins. Similar to the enterococcal histidine kinase VanSB, the pneumococcal VncS works most likely as a kinase/phosphatase (see Example 1, above).

For assay [6], the system named is pneumococcal strain R6. As to the kind of experiment: Cell growth curves (OD 620 nm) and viability of R6 with peptide. It counts as cell-based, Streptococcus pneumoniae. The settings on record: for ability to inhibit R6 growth: peptides at 100 μM added to growing R6 at OD 620 nm of 0.1. The method, then:
(§4) Cell growth curves were performed in the presence or absence of the test reagents as specified. In short, samples were prepared as follows: 1 ml of a pneumococcus culture was placed into 10 ml of prewarmed Semisynthetic (C+Y) medium. The optical density (OD) of the bacteria was monitored at 620 nm until an OD of approximately 0.1 was reached. At this point the test reagents were administered to the samples. The cells were cultured for up to 11 hours at 37° Celsius, and the OD at 620 nm was monitored every hour. A decrease in OD 620 is indicative of cell lysis, an increase is indicative of bacterial growth. No change in optical density indicates growth inhibition.
To characterize the antibacterial activity of the peptide, pneumococcal strain R6 which is sensitive to penicillin was exposed to 0.1 mM of the peptide having the amino acid sequence of SEQ ID NO:2 at an optical density of 0.01 (bacterial density of 3×10^6 cfu/ml). Bacterial growth as measured by optical density was followed for 11 hours and viability was assessed by plating on blood agar. […] Four hours after the start of the experiment, the control strain grew from 3×10^6 to 1.2×10^7 cfu/ml. In contrast, four hours after addition of the peptide, the viable bacterial number decreased from 3×10^6 to 3×10^4 CFU/ml (10^3-fold lower than the control).
The fact that the peptide is active in the range below 1 μg/ml places the potency of its antibacterial effect in the same range as conventional antibiotics.
R6 with no peptide was the control and underwent exponential growth. […] This enhanced activity may result from an improvement in folding of the peptide or greater access to the bacterial target.

Assay [7] concerns pneumococcus R6 in medium lacking lysine. As to the kind of experiment: Phenotypic tolerance: lysis under starvation conditions. The class given is cell-based. To be noted: for lysis response of non-growing bacteria: 10×MIC of penicillin and/or 0.5 mM peptide. The text has this: When bacteria grow slowly or stop growing due to nutrient deprivation, they become tolerant to antibiotics of all classes. […] This prolongs the course of antibiotics needed to treat these infections. For instance, many weeks of therapy are required to treat endocarditis and osteomyelitis secondary to slowly growing bacteria. An in vitro example of phenotypic tolerance is shown in FIG. 10 where pneumococcus R6 has been transferred at time 0 to a medium lacking the essential amino acid lysine. Penicillin was added 5 min after the transfer. […] This same response is seen with the peptide having the amino acid sequence of SEQ ID NO:2.

In assay [8] the test system is leucine deprived R6 cells. Kind of assay: Stringent response: lysis after leucine deprivation. The class given is cell-based, S. pneumoniae. The method, then: P27 and the stringent response mechanism: The stringent response is believed to prevent the death pathway. To clarify the relationship of the stringent response to P27 activity, protein synthesis of R6 was inhibited by leucine deprivation and the effect of P27 was monitored (FIG. 19). […] The minimum concentration of penicillin required to cause penicillin dependent autolysis was equal to its MIC ([…]).

The test system of assay [9] is HK mutant. As to the kind of experiment: Phenotypes of the mutants: lysis by penicillin, vancomycin, DOC. The class given is cell-based, S. pneumoniae. The method, then:
(§5) Construction of mutations: Insertion duplication mutagenesis was carried out using PCR to generate gene fragments for homologous recombination proximal to the amino terminus of OrfW1, HK or RR as follows:
(§6) Phenotypes of the mutants: The mutants were assessed for various physiological functions characteristic of pneumococci. This included lysis by penicillin, vancomycin, and the detergent deoxycholate (DOC). Other capabilities tested included ability to undergo natural DNA transformation (Transform) and expression of the LytA protein as assessed by Western blot.

Assay [10] relates to RR mutant. Described as above. The class given is cell-based, S. pneumoniae. The method, then: as §5, §6
In assay [11] the test system is Orf W1 mutant. The assay is described as above. It counts as cell-based, S. pneumoniae. The method, then:
as §5, §6

For assay [12], the system named is Lyt 4-4. Kind of assay: Loss of chain formation (morphology). To be noted: Lyt 4-4, 0.5 mM peptide in the medium. The class given is cell-based, Streptococcus pneumoniae. The source says:
Loss of chain formation is a measure of antibacterial activity independent of autolysin.
Strains of pneumococcus that are tolerant to penicillin, such as Lyt 4-4, grow in long chains as compared to the diplococcal morphology of wild type pneumococci. FIG. 6A illustrates these chains, which extend to 30-50 bacteria in length.
P27 is capable of triggering different autolytic pathways: To identify the relationship between P27 and the activation of the autolysin LytA, the bactericidal effect of the peptide on the pneumococcal mutant Lyt-4-4 (which is deficient in the major autolysin), was investigated. […] Compared to the diplococcal morphology of wild type pneumococci, pneumococci lacking an active autolysin grow in long chains.

Assay [13] concerns autolysin deficient strain Lyt 4-4. Kind of assay: Growth and killing of autolysin deficient strain. The class given is cell-based, Streptococcus pneumoniae. To be noted: Lyt 4-4, 0.1 mM peptide. The method, then:
The addition of the additives were made at time “0” hours. The strain of bacteria cultured was the Lyt-4-4 strain of Streptococcus pneumoniae which harbors a mutation leading to the loss of LytA activity. The peptide having the amino acid sequence of SEQ ID NO:2 was added as indicated at a concentration of 0.1 mM. Lyt-4-4 lacks active autolysin LytA and is therefore tolerant to penicillin treatment.
as §4
This antibacterial effect was also demonstrable in bacteria mutated so as to prevent autolysis by point mutation in the autolysin, as in the autolysin deficient strain Lyt 4-4. […]

The test system of assay [14] is clinical isolate A144. Kind of assay: Growth of the clinical isolate. It counts as cell-based, pneumococcus. To be noted: 0.1 mM peptide added early in the growth cycle.
Description: as §1

Assay [15] deals with RR/HK mutants. Kind of assay: Antibacterial activity of the peptide in the mutants. It counts as cell-based, S. pneumoniae. To be noted: peptide added exogenously. The source says:
(§7) To test this hypothesis the ability of the peptide having the amino acid sequence of SEQ ID NO:2 to maintain antibacterial activity in the mutants was examined. […] Furthermore, bacteria which are tolerant by virtue of phenotypic tolerance due to slow growth rate or mutations in genes other than the RR/HK will be susceptible to the antibacterial effect of the peptide having the amino acid sequence of SEQ ID NO:2.

Assay [16] concerns mutant in ORF W1. The assay is described as above. To be noted: mutant in ORF W1, peptide added from the outside. The class given is cell-based, S. pneumoniae.
Description: as §7

As for `CC1(C)S[C@@H]2[C@H](NC(=O)Cc3ccccc3)C(=O)N2[C@H]1C(=O)O` [penicillin, benzylpenicillin], the loss of viability in [1] turned out to be 0.5 logs. Further, the “lysis of Van S” value in assay [2] is recorded as “tolerance”. Moreover, in [3], the “lysis of F79” value was “tolerant”. In [4], the “tolerance (lysis and death)” value is “failed to lyse and die”. In assay [5], the “death in the presence of antibiotic” value is reported as “failed to die”. Moreover, the “time to lysis of R6” value in assay [6] (growing R6, penicillin at 10×MIC) is given as “within one hour”. Further, the “viability of non-growing bacteria” value in assay [7] (10×MIC of penicillin) is “unaffected”. Further, the “lysis response of non-growing bacteria” value in assay [7] is on record as “only a minimal response”. For the same compound, the “lysis of R6 under leucine deprivation” value in assay [8] (10×MIC of penicillin or vancomycin, 0.2 mM P27, or combination) is reported as “neither the addition of 10×the MIC of penicillin or vancomycin nor the addition of 0.2 mM P27 resulted in lysis”. Further, the “minimum concentration of penicillin required to cause penicillin dependent autolysis” value in [8] (leucine deprived R6, in combination with P27) came out at 0.1 mg/mL. The “Lysis by” value in assay [9] is “tolerant”; in assay [10] it was “sensitive”; in assay [11], “tolerant”.

As to “MRKEFHNVLSSGQL (listed as Streptococcus pneumoniae) [Peptide 4]”, in [6], the “ability to inhibit R6 growth” value is given as “Exponential growth equal to untreated bacteria”.

With “MEFMRKEFHNVLSSGQLLADKRPARDYN (listed as Streptococcus pneumoniae) [SEQ ID NO:12]”, in [6], the “antibacterial activity against R6” value is on record as “no antibacterial activity”.

MRKEFHNVLSAGQLLADKRPARDYN [Peptide 3]: the “ability to inhibit R6 growth” value in assay [6] was “greatly enhanced antibacterial effect”.

In the case of MRKEFHNVLSSGQLLADKRPARDAN [Peptide 2], the “ability to inhibit R6 growth” value in assay [6] is given as “greatly decreased anti-bacterial activity”.

Regarding “MRKEFHNVLSSGQLLADKRPARDYN (listed as Streptococcus pneumoniae) [Peptide 1]”, the chain formation entry in assay [12] (listed as SEQ ID NO.2) is “dissolution of the chains”; in assay [12] (listed as SEQ ID NO:2), “reversion of the chains to diplococci”. The loss of viability in [1] is reported as 0.5 logs. Further, in [13], the bactericidal activity entry is “demonstrable”. Moreover, the “lysis of Van S” value in assay [2] is given as “not responsive”. In [14], the “growth of strain A144” value is “significantly inhibits the growth of strain A144 for 4 hours”. In addition, the “Bacterial growth as measured by optical density” value in [6] (R6, 0.1 mM peptide, followed for 11 hours) is “completely inhibited growth”. Moreover, the “viable number, fold lower than the control” value in assay [6] (R6, 0.1 mM peptide, four hours) was 10^3 fold. In assay [6] (R6, 0.1 mM peptide, four hours after addition, start 3×10^6), the viable bacterial number was 3×10^4 CFU/ml. Further, the lysis result in [6] (R6, 0.1 mM peptide, listed as SEQ ID NO:2) is reported as “without substantial cell lysis; also recorded: No lysis was detected”. Also, in [6] (R6, converted with molecular weight 2940), the “minimum effective concentration (MEC)” value was 0.15 to 0.3 µg/mL. This compound also returned a minimum effective concentration in assay [6] (R6, optical density over 4 hours) of 50 to 100 nM. The “dose dependence of antibacterial activity” value in assay [6] (R6, various amounts of peptide, 4 hours) was “dose dependent antibacterial activity”. Besides, in assay [6], the “ability to inhibit R6 growth” value is on record as “significant delay in the onset of bacterial growth”. Besides, the “lysis response of non-growing bacteria” value in assay [7] is given as “same response”. Also, the growth inhibition entry in assay [15] was “did not function to inhibit the growth”; in assay [16], “not able to inhibit growth”.

Turning to “LADKRPARDYN (listed as Streptococcus pneumoniae) [Peptide 5]”, the “ability to inhibit R6 growth” value in [6] is given as “Exponential growth equal to untreated bacteria”.

For deoxycholate [DOC], the “Lysis by” value in assay [9] is given as “yes”; in [10] it was “yes”; in assay [11], “no”.
